Test results reported in patent US20020091095A1, “Modulation of Fas and FasL expression” (priority 1999, published 2002).

Tests used:
Fas [1] = assay: Fas expression at the cell surface by flow cytometry, Jurkat cells; format: cell-based; conditions: Jurkat human leukemia T cells, 100 μg/ml sequence, 48 h, treated vs control cells
Protocol: (§1) Cancer cells and PBMCs were seeded in 6 well flat-bottom microplates and were maintained at 37° C. in a 5% CO2 atmosphere. Unless stated otherwise, 2×10^5 cells/ml were incubated for 48 h with 0 μg/ml (control) or 100 μg/ml ([…]) (treated) of the sequences.
(§2) Fas and FasL expression were measured by flow cytometry using anti-Fas FITC-conjugated monoclonal antibodies and anti-FasL PE-conjugated monoclonal antibodies in a FACScalibur Flow Cytometer (Becton Dickinson, San Jose, Calif., USA) using the CELLQuest program (Becton Dickinson).
(§3) Results are expressed as percentage (%) increase in the expression of Fas and of FasL measured on treated cells compared to control cells.
(§4) Jurkat human leukemia T cells are an atypical multi-drug resistant human suspension tumor cell model.

FasL [2] = assay: FasL expression at the cell surface by flow cytometry, Jurkat cells; format: cell-based; conditions: Jurkat human leukemia T cells, 100 μg/ml sequence, 48 h, treated vs control cells
Protocol: as §1, §2, §3, §4

Fas [3] = assay: Fas expression at the cell surface by flow cytometry, PBMCs; format: cell-based, human; conditions: 100 μg/ml sequence, 48 h, treated vs control cells
Protocol: (§5) Peripheral blood mononuclear cells (hereinafter, “PBMCs”) were isolated from human blood by Ficoll-Hypaque (Amersham Pharmacia Biotech, Baie d'Urfée, Québec, Canada) density gradient centrifugation.
as §1, §2, §3

FasL [4] = assay: FasL expression at the cell surface by flow cytometry, PBMCs; format: cell-based, human; conditions: 100 μg/ml sequence, 48 h, treated vs control cells
Protocol: as §5, §1, §2, §3

Fas [5] = assay: Fas expression at the cell surface by flow cytometry, T-24 cells; format: cell-based, human; conditions: T-24 bladder cancer cells, 100 μg/ml sequence, 48 h, treated vs control cells
Protocol: as §1, §2, §3
(§6) T-24 bladder cancer cells are a p53 mutated human cell line T-24 cells (1.0×10^5 cells/ml) were incubated with the 6 base sequences shown in Table 4.

FasL [6] = assay: FasL expression at the cell surface by flow cytometry, T-24 cells; format: cell-based, human; conditions: T-24 bladder cancer cells, 100 μg/ml sequence, 48 h, treated vs control cells
Protocol: as §1, §2, §3, §6

Fas [7] = assay: Fas expression at the cell surface by flow cytometry, UMUC-3 cells; format: cell-based, human; conditions: UMUC-3 bladder cancer cells, 100 μg/ml sequence, 48 h, treated vs control cells
Protocol: as §1, §2, §3
(§7) UMUC-3 bladder cancer cells are a P-glycoprotein overexpressing human cell line.

FasL [8] = assay: FasL expression at the cell surface by flow cytometry, UMUC-3 cells; format: cell-based, human; conditions: UMUC-3 bladder cancer cells, 100 μg/ml sequence, 48 h, treated vs control cells
Protocol: as §1, §2, §3, §7

Fas [9] = assay: Fas expression at the cell surface by flow cytometry, OVCAR-3 cells; format: cell-based, human; conditions: OVCAR-3 ovarian cancer cells, 100 μg/ml sequence, 48 h, treated vs control cells
Protocol: as §1, §2, §3
(§8) OVCAR-3 ovarian cancer cells are a p53 mutated, p21/waf-1/Cip deleted, metastatic human solid tumor model.

FasL [10] = assay: FasL expression at the cell surface by flow cytometry, OVCAR-3 cells; format: cell-based, human; conditions: OVCAR-3 ovarian cancer cells, 100 μg/ml sequence, 48 h, treated vs control cells
Protocol: as §1, §2, §3, §8

Fas [11] = assay: Fas expression at the cell surface by flow cytometry, SK-OV-3 cells; format: cell-based, human; conditions: SK-OV-3 ovarian cancer cells, 100 μg/ml sequence, 48 h, treated vs control cells
Protocol: as §1, §2, §3
(§9) SK-OV-3 ovarian cancer cells are a p53 mutated, p21/waf-1/Cip deleted, p15^ink4B,p16^ink4 deleted metastatic human solid tumor model.

FasL [12] = assay: FasL expression at the cell surface by flow cytometry, SK-OV-3 cells; format: cell-based, human; conditions: SK-OV-3 ovarian cancer cells, 100 μg/ml sequence, 48 h, treated vs control cells
Protocol: as §1, §2, §3, §9

Fas [13] = assay: Fas expression at the cell surface by flow cytometry, LNCaP cells; format: cell-based, human; conditions: LNCaP prostate cancer cells, 100 μg/ml sequence, 48 h, treated vs control cells
Protocol: as §1, §2, §3
(§10) LNCaP prostate cancer cells are a TGF-beta 1 receptor negative, […], metastatic human solid tumor model.

FasL [14] = assay: FasL expression at the cell surface by flow cytometry, LNCaP cells; format: cell-based, human; conditions: LNCaP prostate cancer cells, 100 μg/ml sequence, 48 h, treated vs control cells
Protocol: as §1, §2, §3, §10

Fas [15] = assay: Fas expression at the cell surface by flow cytometry, MCF-7 cells; format: cell-based, human; conditions: MCF-7 breast cancer cells, 100 μg/ml sequence, 48 h, treated vs control cells
Protocol: as §1, §2, §3
(§11) MCF-7 human breast cancer cells are a caspase-3 negative, estrogen-dependent human solid tumor model.

FasL [16] = assay: FasL expression at the cell surface by flow cytometry, MCF-7 cells; format: cell-based, human; conditions: MCF-7 breast cancer cells, 100 μg/ml sequence, 48 h, treated vs control cells
Protocol: as §1, §2, §3, §11

| Sequence | % INCREASE Fas (Fas [1]) [%] | % INCREASE FasL (FasL [2]) [%] | % INCREASE Fas (Fas [3]) [%] | % INCREASE FasL (FasL [4]) [%] | % INCREASE Fas (Fas [5]) [%] | % INCREASE FasL (FasL [6]) [%] | % INCREASE Fas (Fas [7]) [%] | % INCREASE FasL (FasL [8]) [%] | % INCREASE Fas (Fas [9]) [%] | % INCREASE FasL (FasL [10]) [%] | % INCREASE Fas (Fas [11]) [%] | % INCREASE FasL (FasL [12]) [%] | % INCREASE Fas (Fas [13]) [%] | % INCREASE FasL (FasL [14]) [%] | % INCREASE Fas (Fas [15]) [%] | % INCREASE FasL (FasL [16]) [%] |
| --- | --- | --- | --- | --- | --- | --- | --- | --- | --- | --- | --- | --- | --- | --- | --- | --- |
| TGTGTG [SEQ ID NO:1] | 52 | 93 | 126 | 260 | 84 | 213 | 72 | 112 | 64 | 70 | 49 | 37 | 29 | 40 | 122 | 121 |
| GGAAGG [SEQ ID NO:14] | 67 | 88 | 112 | 162 | 46 | 14 | 1 | 8 | 15 | 1 | −15 | −31 | 26 | −4 | 62 | 84 |
| CCGTCC [SEQ ID NO:8] | 107 | 151 | 1046 | 1147 | 282 | 459 | 55 | 149 | 83 | 95 | 58 | 32 | 0 | 311 | 200 | 322 |
| CTGTCT [SEQ ID NO:11] | 203 | 413 | 310 | 476 | 107 | 165 | 45 | 156 | 52 | 93 | 15 | 26 | 17 | 55 | 73 | 128 |
| GGTGGG [SEQ ID NO:4] | 61 | 22 | 57 | 59 | 106 | 29 | 62 | 113 | 41 | 14 | −1 | −17 | 21 | 8 | 106 | 110 |
| GTGTGT [SEQ ID NO:2] | 52 | 43 | 94 | 99 | 93 | 77 | 72 | 154 | 77 | 69 | 60 | 24 | 34 | 5 | 155 | 135 |
| GGTTGG [SEQ ID NO:13] | 99 | 86 | −3 | −32 | 75 | 25 | 47 | 98 | 22 | 10 | 16 | −3 | 23 | −3 | 99 | 83 |
